{"source": "ChEMBL document CHEMBL3751693", "about": "“Synthesis, antimicrobial evaluation and molecular modeling of 5-hydroxyisoquinolinium salt series; the effect of the hydroxyl moiety” (Bioorg Med Chem, 2016)", "key": {"Staphylococcus aureus [1]": {"test_system": "Staphylococcus aureus", "test": "Antimicrobial activity against clinical isolate Staphylococcus aureus CCM 451608 after 24 hrs", "format": "functional", "settings": "CCM 451608, 24 h"}, "Staphylococcus aureus [2]": {"test_system": "Staphylococcus aureus", "test": "Antimicrobial activity against clinical isolate Staphylococcus aureus CCM 451608 after 48 hrs", "format": "functional", "settings": "CCM 451608, 48 h"}, "Staphylococcus aureus [3]": {"test_system": "Staphylococcus aureus", "test": "Antimicrobial activity against clinical isolate methicillin-resistant Staphylococcus aureus H 599608 after 24 hrs", "format": "functional", "settings": "H 599608, 24 h"}, "Staphylococcus aureus [4]": {"test_system": "Staphylococcus aureus", "test": "Antimicrobial activity against clinical isolate methicillin-resistant Staphylococcus aureus H 599608 after 48 hrs", "format": "functional", "settings": "H 599608, 48 h"}, "[5]": {"test_system": "Staphylococcus epidermidis", "test": "Antimicrobial activity against clinical isolate Staphylococcus epidermidis H 696608 after 24 hrs", "format": "functional", "settings": "H 696608, 24 h"}, "[6]": {"test_system": "Staphylococcus epidermidis", "test": "Antimicrobial activity against clinical isolate Staphylococcus epidermidis H 696608 after 48 hrs", "format": "functional", "settings": "H 696608, 48 h"}, "Enterococcus sp. [7]": {"test_system": "Enterococcus sp.", "test": "Antimicrobial activity against clinical isolate Enterococcus sp. J 1436508 after 24 hrs", "format": "functional", "settings": "J 1436508, 24 h"}, "Enterococcus sp. [8]": {"test_system": "Enterococcus sp.", "test": "Antimicrobial activity against clinical isolate Enterococcus sp. J 1436508 after 48 hrs", "format": "functional", "settings": "J 1436508, 48 h"}, "Escherichia coli [9]": {"test_system": "Escherichia coli", "test": "Antimicrobial activity against clinical isolate Escherichia coli CCM 4517 after 24 hrs", "format": "functional", "settings": "CCM 4517, 24 h"}, "Escherichia coli [10]": {"test_system": "Escherichia coli", "test": "Antimicrobial activity against clinical isolate Escherichia coli CCM 4517 after 48 hrs", "format": "functional", "settings": "CCM 4517, 48 h"}, "Klebsiella pneumoniae [11]": {"test_system": "Klebsiella pneumoniae", "test": "Antimicrobial activity against clinical isolate Klebsiella pneumoniae D 1175008 after 24 hrs", "format": "functional", "settings": "D 1175008, 24 h"}, "Klebsiella pneumoniae [12]": {"test_system": "Klebsiella pneumoniae", "test": "Antimicrobial activity against clinical isolate Klebsiella pneumoniae D 1175008 after 48 hrs", "format": "functional", "settings": "D 1175008, 48 h"}, "Klebsiella pneumoniae [13]": {"test_system": "Klebsiella pneumoniae", "test": "Antimicrobial activity against clinical isolate ESBL-Klebsiella pneumoniae J 1436808 after 24 hrs", "format": "functional", "settings": "J 1436808, 24 h"}, "Klebsiella pneumoniae [14]": {"test_system": "Klebsiella pneumoniae", "test": "Antimicrobial activity against clinical isolate ESBL-Klebsiella pneumoniae J 1436808 after 48 hrs", "format": "functional", "settings": "J 1436808, 48 h"}, "Pseudomonas aeruginosa [15]": {"test_system": "Pseudomonas aeruginosa", "test": "Antimicrobial activity against clinical isolate Pseudomonas aeruginosa CCM 1961 after 72 hrs", "format": "functional", "settings": "CCM 1961, 72 h"}, "Pseudomonas aeruginosa [16]": {"test_system": "Pseudomonas aeruginosa", "test": "Antimicrobial activity against clinical isolate Pseudomonas aeruginosa CCM 1961 after 120 hrs", "format": "functional", "settings": "CCM 1961, 120 h"}, "Candida albicans [17]": {"test_system": "Candida albicans", "test": "Antimicrobial activity against Candida albicans ATCC 44859 after 24 hrs by spectrophotometry", "format": "functional", "settings": "ATCC 44859, 24 h"}, "Aspergillus fumigatus [18]": {"test_system": "Aspergillus fumigatus", "test": "Antimicrobial activity against Aspergillus fumigatus 231 after 24 hrs by spectrophotometry", "format": "functional", "settings": "Aspergillus fumigatus, 231, 24 h"}, "Candida albicans [19]": {"test_system": "Candida albicans", "test": "Antimicrobial activity against Candida albicans ATCC 44859 after 48 hrs by spectrophotometry", "format": "functional", "settings": "ATCC 44859, 48 h"}, "Candida tropicalis [20]": {"test_system": "Candida tropicalis", "test": "Antimicrobial activity against Candida tropicalis 156 after 24 hrs by spectrophotometry", "format": "functional", "settings": "Candida tropicalis, 156, 24 h"}, "Candida tropicalis [21]": {"test_system": "Candida tropicalis", "test": "Antimicrobial activity against Candida tropicalis 156 after 48 hrs by spectrophotometry", "format": "functional", "settings": "Candida tropicalis, 156, 48 h"}, "Pichia kudriavzevii [22]": {"test_system": "Pichia kudriavzevii", "test": "Antimicrobial activity against Candida krusei E28 after 24 hrs by spectrophotometry", "format": "functional", "settings": "E28, 24 h"}, "Pichia kudriavzevii [23]": {"test_system": "Pichia kudriavzevii", "test": "Antimicrobial activity against Candida krusei E28 after 48 hrs by spectrophotometry", "format": "functional", "settings": "E28, 48 h"}, "Nakaseomyces glabratus [24]": {"test_system": "Nakaseomyces glabratus", "test": "Antimicrobial activity against Candida glabrata 20/I after 24 hrs by spectrophotometry", "format": "functional"}, "Nakaseomyces glabratus [25]": {"test_system": "Nakaseomyces glabratus", "test": "Antimicrobial activity against Candida glabrata 20/I after 48 hrs by spectrophotometry", "format": "functional"}, "Trichosporon asahii [26]": {"test_system": "Trichosporon asahii", "test": "Antimicrobial activity against Trichosporon asahii 1188 after 24 hrs by spectrophotometry", "format": "functional", "settings": "Trichosporon asahii, 1188, 24 h"}, "Trichosporon asahii [27]": {"test_system": "Trichosporon asahii", "test": "Antimicrobial activity against Trichosporon asahii 1188 after 48 hrs by spectrophotometry", "format": "functional", "settings": "Trichosporon asahii, 1188, 48 h"}, "Aspergillus fumigatus [28]": {"test_system": "Aspergillus fumigatus", "test": "Antimicrobial activity against Aspergillus fumigatus 231 after 48 hrs by spectrophotometry", "format": "functional", "settings": "Aspergillus fumigatus, 231, 48 h"}, "Lichtheimia corymbifera [29]": {"test_system": "Lichtheimia corymbifera", "test": "Antimicrobial activity against Absidia corymbifera 272 after 24 hrs by spectrophotometry", "format": "functional", "settings": "Lichtheimia corymbifera, 272, 24 h"}, "Lichtheimia corymbifera [30]": {"test_system": "Lichtheimia corymbifera", "test": "Antimicrobial activity against Absidia corymbifera 272 after 48 hrs by spectrophotometry", "format": "functional", "settings": "Lichtheimia corymbifera, 272, 48 h"}, "[31]": {"test_system": "Trichophyton mentagrophytes", "test": "Antimicrobial activity against Trichophyton mentagrophytes 445 after 72 hrs by spectrophotometry", "format": "functional", "settings": "Trichophyton mentagrophytes, 445, 72 h"}, "[32]": {"test_system": "Trichophyton mentagrophytes", "test": "Antimicrobial activity against Trichophyton mentagrophytes 445 after 120 hrs by spectrophotometry", "format": "functional", "settings": "Trichophyton mentagrophytes, 445, 120 h"}, "[33]": {"test": "Cytotoxicity against CHOK1 cells after 24 hrs by MTT assay", "format": "cell-based", "settings": "Cricetulus griseus, CHO-K1, 24 h"}}, "data": [{"smiles": "CCCCCCCCCCCCCCCCCC[n+]1ccc2ccccc2c1", "values": [{"measurement": "MIC", "setting": "Staphylococcus aureus [1]", "value": 0.5, "unit": "µM"}, {"measurement": "MBC", "setting": "Staphylococcus aureus [2]", "value": 2, "unit": "µM"}, {"measurement": "MIC", "setting": "Staphylococcus aureus [2]", "value": 0.5, "unit": "µM"}, {"measurement": "MIC", "setting": "Staphylococcus aureus [3]", "value": 0.5, "unit": "µM"}, {"measurement": "MBC", "setting": "Staphylococcus aureus [4]", "value": 2, "unit": "µM"}, {"measurement": "MIC", "setting": "Staphylococcus aureus [4]", "value": 0.5, "unit": "µM"}, {"measurement": "MIC", "setting": "[5]", "value": 0.5, "unit": "µM"}, {"measurement": "MBC", "setting": "[6]", "value": 2, "unit": "µM"}, {"measurement": "MIC", "setting": "[6]", "value": 0.5, "unit": "µM"}, {"measurement": "MIC", "setting": "Enterococcus sp. [7]", "value": 2, "unit": "µM"}, {"measurement": "MBC", "setting": "Enterococcus sp. [8]", "value": 2, "unit": "µM"}, {"measurement": "MIC", "setting": "Enterococcus sp. [8]", "value": 2, "unit": "µM"}, {"measurement": "MIC", "setting": "Escherichia coli [9]", "value": 31, "unit": "µM"}, {"measurement": "MBC", "setting": "Escherichia coli [10]", "value": 31, "unit": "µM"}, {"measurement": "MIC", "setting": "Escherichia coli [10]", "value": 31, "unit": "µM"}, {"measurement": "MIC", "setting": "Klebsiella pneumoniae [11]", "value": 63, "unit": "µM"}, {"measurement": "MBC", "setting": "Klebsiella pneumoniae [12]", "value": 63, "unit": "µM"}, {"measurement": "MIC", "setting": "Klebsiella pneumoniae [12]", "value": 63, "unit": "µM"}, {"measurement": "MIC", "setting": "Klebsiella pneumoniae [13]", "value": 63, "unit": "µM"}, {"measurement": "MBC", "setting": "Klebsiella pneumoniae [14]", "value": 250, "unit": "µM"}, {"measurement": "MIC", "setting": "Klebsiella pneumoniae [14]", "value": 63, "unit": "µM"}, {"measurement": "MIC", "setting": "Pseudomonas aeruginosa [15]", "value": 125, "unit": "µM"}, {"measurement": "MBC", "setting": "Pseudomonas aeruginosa [16]", "value": 250, "unit": "µM"}, {"measurement": "MIC", "setting": "Pseudomonas aeruginosa [16]", "value": 125, "unit": "µM"}, {"measurement": "MIC", "setting": "Candida albicans [17]", "value": 2, "unit": "µM"}, {"measurement": "MIC", "setting": "Aspergillus fumigatus [18]", "value": 63, "unit": "µM"}, {"measurement": "MFC", "setting": "Candida albicans [19]", "value": 2, "unit": "µM"}, {"measurement": "MIC", "setting": "Candida albicans [19]", "value": 2, "unit": "µM"}, {"measurement": "MIC", "setting": "Candida tropicalis [20]", "value": 2, "unit": "µM"}, {"measurement": "MFC", "setting": "Candida tropicalis [21]", "value": 2, "unit": "µM"}, {"measurement": "MIC", "setting": "Candida tropicalis [21]", "value": 2, "unit": "µM"}, {"measurement": "MIC", "setting": "Pichia kudriavzevii [22]", "value": 2, "unit": "µM"}, {"measurement": "MFC", "setting": "Pichia kudriavzevii [23]", "value": 2, "unit": "µM"}, {"measurement": "MIC", "setting": "Pichia kudriavzevii [23]", "value": 2, "unit": "µM"}, {"measurement": "MIC", "setting": "Nakaseomyces glabratus [24]", "value": 1, "unit": "µM"}, {"measurement": "MFC", "setting": "Nakaseomyces glabratus [25]", "value": 2, "unit": "µM"}, {"measurement": "MIC", "setting": "Nakaseomyces glabratus [25]", "value": 1, "unit": "µM"}, {"measurement": "MIC", "setting": "Trichosporon asahii [26]", "value": 2, "unit": "µM"}, {"measurement": "MFC", "setting": "Trichosporon asahii [27]", "value": 2, "unit": "µM"}, {"measurement": "MIC", "setting": "Trichosporon asahii [27]", "value": 2, "unit": "µM"}, {"measurement": "MFC", "setting": "Aspergillus fumigatus [28]", "value": 63, "unit": "µM"}, {"measurement": "MIC", "setting": "Aspergillus fumigatus [28]", "value": 63, "unit": "µM"}, {"measurement": "MIC", "setting": "Lichtheimia corymbifera [29]", "value": 7.8, "unit": "µM"}, {"measurement": "MFC", "setting": "Lichtheimia corymbifera [30]", "value": 63, "unit": "µM"}, {"measurement": "MIC", "setting": "Lichtheimia corymbifera [30]", "value": 7.8, "unit": "µM"}, {"measurement": "MIC", "setting": "[31]", "value": 2, "unit": "µM"}, {"measurement": "MFC", "setting": "[32]", "value": 31, "unit": "µM"}, {"measurement": "MIC", "setting": "[32]", "value": 2, "unit": "µM"}, {"measurement": "IC50", "setting": "[33]", "value": 6, "unit": "µM"}]}, {"smiles": "CCCCCCCCCCCCCCCCCC[n+]1ccc2c(O)cccc2c1", "values": [{"measurement": "IC50", "setting": "[33]", "value": 7, "unit": "µM"}]}]}
